Measurements published in US20090022803A1, “Oral Formulations For Delivery of Catecholic Butanes Including Ndga Compounds” (priority 2005, published 2009).

Experiment: Stability of M4N formulations at room temperature (time to crystallized precipitation)
Format: physicochemical
Protocol: A 10 mL solution of M4N at a concentration of about 10 mg/mL in 40% BP-β-CD was made as follows. About 10 mL of the 40% HP-β-CD solution were added to a glass beaker containing a stir bar. The beaker was placed on a magnetic plate and the stir bar was set to stir at medium speed. About […] of M4N were slowly added to the 40% HP-β-CD in the center of the beaker with the aid of a spatula. The M4N/40% HP-β-CD mixture was stirred for 2 hr or until all M4N was uniformly suspended without any clumps being present. The M4N/40% HP-β-CD mixture was optionally heated at 80° C. for about 30 min. (or longer if a larger volume of solution was desired, for example, 1 hr at 80° C. for 100 mL of the M4N/HP-β-CD mixture), or longer as needed to ensure complete dissolution of M4N. […] The final M4N/40% HP-β-CD solution was stored at room temperature and was kept protected from light. This process may be scaled up or down to obtain the requisite volume or concentration of M4N. Formulations containing M4N in other cyclodextrin solutions may be similarly made, such as, for example, by substituting HP-β-CD in the process described above with other cyclodextrins.
A 100 mL solution of M4N at a concentration of about 25 mg/mL in PEG 300 was made as follows. About 100 mL of PEG 300 were added to a glass beaker containing a stir bar. The beaker was placed on a magnetic plate and the stir bar was set to stir at medium speed. About 2.5 g of M4N were slowly added to the PEG 300 in the center of the beaker with the aid of a spatula to prevent M4N from sticking to the beaker wall. The M4N/PEG 300 mixture was stirred for 24 hr or until all M4N had dissolved or was uniformly suspended without any clumps being present. The M4N/PEG 300 mixture was optionally heated at about 60° C. for about 30 min. (or longer if a larger volume of solution was desired, for example, 1 hr at 60° C. for 500 mL of the M4N/PEG 300 mixture), or longer as needed to ensure complete dissolution of M4N. […] If crystals formed, the M4N/PEG 300 solution could be heated again at 60° C. for about 1 hr, with stirring, on a hot magnetic plate until all M4N was dissolved back in solution. The final M4N/PEG 300 solution was stored at room temperature and was kept protected from light. This process may be scaled up or down to obtain the requisite volume or concentration of M4N. Formulations containing M4N in other PEGs may be similarly made, such as, for example, by substituting PEG 300 in the process described above with PEG 400 or PEG 400 monolaurate.
Formulations containing M4N in other water-insoluble lipids combined with non-ionic, ionic or amphipathic surfactants or water-soluble organic solvents may be similarly made, such as, for example, by substituting sesame oil in the process described above with corn oil, olive oil, soybean oil, peppermint oil, or mineral oil and substituting Tween® 20 with Tween® 80, TPGS, lecithin, PEG 300, PEG 400, PEG 400 monolaurate, glycerol, PVP, PG, or other solubilizing agents, and combinations thereof. Stability in reference to the clear liquid solutions herein refers to the time it takes to form crystallized precipitation in solution. A stable solution is one that is clear and free of particulates for an extended period of time.

COc1ccc(C[C@@H](C)[C@@H](C)Cc2ccc(OC)c(OC)c2)cc1OC [Formulation M4N, meso-1,4-bis(3,4-dimethoxyphenyl)-2,3-dimethylbutane]
>7 days: Stability at Room Temperature (10% TPGS (w/v), 50% PEG 400 (v/v), M4N 50 mg/ml, suspension) | Stability at Room Temperature (M4N 1 mg/mL in 20% HP-β-CD) | Stability at Room Temperature (M4N 1 mg/mL in 30% HP-β-CD) | Stability at Room Temperature (M4N 1 mg/mL in 50% HP-β-CD)
>2 days: Stability at Room Temperature (0.4% (v/v) Cinnamaldehyde, 4.6% (v/v) Peppermint Oil, 47.5% (v/v) PEG 400, 47.5% (v/v) Tween ® 20, M4N 60 mg/mL) | Stability at Room Temperature (0.4% (v/v) Eugenol, 49.8% (v/v) Tween ® 20, 49.8% (v/v) PEG 400, M4N 60 mg/mL) | Stability at Room Temperature (5% (v/v) Peppermint Oil, 47.5% (v/v) Tween ® 20, 47.5% (v/v) PEG 400, M4N 60 mg/mL)
>14 days: Stability at Room Temperature (25%(w/v) Lecithin, 37.5% (v/v) PEG 400, 37.5% (v/v) Tween ® 20, M4N 60 mg/mL)
>1 days: Stability at Room Temperature (3% (w/v)Glycerol Monostearate, 48.5% (v/v) PEG 400, 48.5% (v/v) Tween ® 20, M4N 60 mg/mL)
>4 days: Stability at Room Temperature (0.4% (v/v) Cinnamadehyde, 49.8%(v/v) PEG 400, 49.8% (v/v) Tween ® 20, M4N 60 mg/mL) | Stability at Room Temperature (47.5% (v/v) Tween ® 20, 47.5% (v/v) PEG 400, 2.5% (w/v) Beeswax 2.5% (w/v) PEG 3350, M4N 60 mg/mL) | Stability at Room Temperature (50.3% (v/v) Tween ® 20, 44.6% (v/v) PEG 400, 2.4% (w/v) Beeswax, 2.4% (w/v) PEG 3350, 0.3% (w/v) Naringenin, M4N 60 mg/mL) | Stability at Room Temperature (Labrafil ® 100%, M4N 60 mg/mL) | Stability at Room Temperature (Labrasol ® 100%, M4N 50 mg/mL) | Stability at Room Temperature (Labrasol ® 100%, M4N 60 mg/mL) | Stability at Room Temperature (Labrasol ® 100%, M4N 70 mg/mL) | Stability at Room Temperature (Labrasol ® 100%, M4N 80 mg/mL)
more than 3 days: stable at room temperature (M4N 1 mg/mL in Tween® 80)
>3 days: Stability at Room Temperature (47.5% Tween ® 20 (v/v), 47.5% PEG 400 (v/v), 5% Beeswax (w/v), M4N 200 mg/g, waxy solid) | Stability at Room Temperature (50% Tween ® 20 (v/v), 50% PEG 400 (v/v), M4N 30 mg/ml) | Stability at Room Temperature (50% Tween ® 20 (v/v), 50% PEG 400 (v/v), M4N 40 mg/ml) | Stability at Room Temperature (50% Tween ® 20 (v/v), 50% PEG 400 (v/v), M4N 50 mg/ml) | Stability at Room Temperature (50% Tween ® 20 (v/v), 50% PEG 400 (v/v), M4N 60 mg/ml) | Stability Time at Room Temperature (M4N 1 mg/mL in Peppermint Oil)
>9 days: Stability at Room Temperature (0.3% (v/v) Piperin, 49.8% (v/v) PEG 400, 49.8% (v/v) Tween ® 20, M4N 60 mg/mL, suspension)
for up to 10 days: Stability at Room Temperature (Glycerol Monoleate 100% (w/v), M4N 0.10 mg/ml, remains in suspension, can be mixed back together) | Stability at Room Temperature (Glycerol Monoleate 100% (w/v), M4N 0.25 mg/ml, remains in suspension, can be mixed back together) | Stability at Room Temperature (Glycerol Monoleate 100% (w/v), M4N 1.00 mg/ml, remains in suspension, can be mixed back together) | Stability at Room Temperature (Glycerol Monoleate 100% (w/v), M4N 5.0 mg/ml, remains in suspension, can be mixed back together) | Stability at Room Temperature (Glycerol Monoleate 100% (w/v), M4N 10.0 mg/ml, remains in suspension, can be mixed back together) | Stability at Room Temperature (Glycerol Monoleate 100% (w/v), M4N 12.0 mg/ml, remains in suspension, can be mixed back together) | Stability at Room Temperature (Glycerol Monoleate 100% (w/v), M4N 15.0 mg/ml, remains in suspension, can be mixed back together) | Stability at Room Temperature (Glycerol Monoleate 100% (w/v), M4N 17.5 mg/ml, remains in suspension, can be mixed back together) | Stability at Room Temperature (Glycerol Monoleate 100% (w/v), M4N 20.0 mg/ml, remains in suspension, can be mixed back together) | Stability at Room Temperature (Glycerol Monoleate 100% (w/v), M4N 25.0 mg/ml, remains in suspension, can be mixed back together) | Stability at Room Temperature (Glycerol Monoleate 100% (w/v), M4N 30.0 mg/ml, remains in suspension, can be mixed back together) | Stability at Room Temperature (Glycerol Monoleate 100% (w/v), M4N 40.0 mg/ml, remains in suspension, can be mixed back together) | Stability at Room Temperature (Glycerol Monoleate 100% (w/v), M4N 50.0 mg/ml, remains in suspension, can be mixed back together) | Stability at Room Temperature (Glycerol Monoleate 100% (w/v), M4N 60.0 mg/ml, remains in suspension, can be mixed back together) | Stability at Room Temperature (Glycerol Monoleate 100% (w/v), M4N 65.0 mg/ml, remains in suspension, can be mixed back together) | Stability at Room Temperature (Glycerol Monoleate 100% (w/v), M4N 70.0 mg/ml, remains in suspension, can be mixed back together) | Stability at Room Temperature (Glycerol Monoleate 100% (w/v), M4N 80.0 mg/ml, remains in suspension, can be mixed back together) | Stability at Room Temperature (Glycerol Monoleate 100% (w/v), M4N 100.0 mg/ml, remains in suspension, can be mixed back together) | Stability at Room Temperature (Glycerol Monoleate 100% (w/v), M4N 200.0 mg/ml, remains in suspension, can be mixed back together) | Stability at Room Temperature (Glycerol Monoleate 100% (w/v), M4N 300.0 mg/ml, remains in suspension, can be mixed back together)
<3 days: Stability at Room Temperature (M4N 1 mg/mL in 50% HP-β-CD, 1.25% PVP (w/v))
more than 7 days: stable at room temperature (M4N 1 mg/mL in Tween® 20)
